Laboratory results from US8889668B2, “Oxadiazole diaryl compounds” (Merck Serono SA, priority 2007, dated 2014).

Legend:
S1P1 [1] = target: T1, S1P1 (Homo sapiens (Human), UniProt P21453); experiment: Receptor binding assay, [33P]sphingosine 1-phosphate, membranes from CHO cells expressing S1P1; details: [33P]S1P 25 pM, SPA
Description: (§1) Receptor binding assay: Membranes were prepared from CHO cells expressing S1P1 or S1P3 for use in ligand and […] binding studies. Cells were suspended in 50 mM TRIS, pH 7.4, 2 mM EDTA, 250 mM Sucrose (buffer A) and 1× Complete protease inhibitor cocktail (Roche), and disrupted at 4° C. by nitrogen decompression using a cell disruption bomb (Parr Instrument). Following centrifugation at 1000 RPM for 10 min at 4° C., the supernatant was suspended in buffer A and centrifuged again at 19000 RPM for 60 min at 4° C. The pellet was then suspended in 10 mM HEPES, pH 7.4, 1 mM EDTA, 250 mM Sucrose (Buffer B), and 1× Complete EDTA-free protease inhibitor cocktail and homogenized using a potter. Membranes were flash frozen in liquid nitrogen and stored at −80° C. [33P]sphingosine 1-phosphate (3000 Ci/mmol; American Radiolabeled Chemicals, Inc.) was added to test compounds in DMSO. Membranes and WGA SPA beads (GE Healthcare) were added to give a final volume of 100 μl in 96-well plates with assay concentrations of 25 pM or 10 pM [33P]sphingosine 1-phosphate (respectively for S1P1 or S1P3), 50 mM HEPES, pH 7.5, 5 mM MgCl2, 100 mM NaCl, 0.4% fatty acid-free BSA, 1-5 μg/well of proteins and 100 μg/well of WGA SPA beads. Binding was performed for 60 min at room temperature on a shaker and bound radioactivity was measured on a PerkinElmer 1450 MicroBeta counter. Specific binding was calculated by subtracting remaining radioactivity in the presence of 1000-fold excess of unlabeled S1P. Binding data were analyzed using the GraphPad Prism program.

S1P1 [2] = target: T1, S1P1; experiment: 35S-GTPγS binding, membranes from CHO cells expressing S1P1; assay type: biochemical; details: 60 min 30° C., read-out: S1P1 GTPgS EC50
S1P3 = S1P3 (Homo sapiens (Human), UniProt Q99500); experiment: 35S-GTPγS binding, membranes from CHO cells expressing S1P3; assay type: biochemical; details: 60 min 30° C., read-out: S1P3 GTPgs EC50
Description: as §1
Measurements of ^35S-GTPγS Binding: Membranes (1 to 10 μg protein) prepared as described above, were incubated in 96-well Scintiplates (PerkinElmer) with test compounds diluted in DMSO, in 180 μl of 20 mM HEPES, pH 7.4, 10 mM MgCl2, 2 μg/well Saponin, 0.2% fatty acid free BSA (Assay buffer), 140 mM NaCl and 1.7 μM GDP. The assay was initiated with the addition of 20 μl of 1.5 nM [35S]-GTPγS (1100 Ci/mmol; GE Healthcare) in assay buffer. After 60 min incubation at 30° C. on a shaker, plates were centrifuged for 10 min at 2000 RPM. Supernatant was discarded and membrane bound radioactivity was measured on a PerkinElmer 1450 MicroBeta counter. Triplicate samples were averaged and expressed as % response relative to S1P activation in absence of compound (n=2).

T1 sequence (P21453 whole entry, species assumed): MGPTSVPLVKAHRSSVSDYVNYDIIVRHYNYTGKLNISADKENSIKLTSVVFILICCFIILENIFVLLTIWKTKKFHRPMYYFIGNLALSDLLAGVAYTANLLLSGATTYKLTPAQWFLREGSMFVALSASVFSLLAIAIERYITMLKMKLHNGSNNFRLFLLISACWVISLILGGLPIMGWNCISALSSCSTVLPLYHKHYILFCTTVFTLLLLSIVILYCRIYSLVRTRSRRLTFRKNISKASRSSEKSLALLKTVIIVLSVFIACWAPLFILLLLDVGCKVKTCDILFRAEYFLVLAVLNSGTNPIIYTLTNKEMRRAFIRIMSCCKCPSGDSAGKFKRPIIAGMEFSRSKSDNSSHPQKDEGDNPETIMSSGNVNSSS
Chain of S1P3 (Q99500 whole entry, species assumed): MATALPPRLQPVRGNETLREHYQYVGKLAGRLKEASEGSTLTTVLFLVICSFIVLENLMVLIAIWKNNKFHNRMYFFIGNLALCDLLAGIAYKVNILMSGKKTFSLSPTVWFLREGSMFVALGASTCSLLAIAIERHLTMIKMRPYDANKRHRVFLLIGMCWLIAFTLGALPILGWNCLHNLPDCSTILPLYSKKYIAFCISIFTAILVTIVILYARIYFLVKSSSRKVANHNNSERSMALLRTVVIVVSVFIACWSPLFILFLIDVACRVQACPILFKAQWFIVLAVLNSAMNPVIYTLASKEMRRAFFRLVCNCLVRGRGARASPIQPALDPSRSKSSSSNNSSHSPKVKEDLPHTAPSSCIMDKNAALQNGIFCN

Row | Structure (SMILES) | Ki (S1P1 [1]) [nM] | EC50 (S1P1 [2]) [nM] | EC50 (S1P3) [nM]
1 | COc1ccccc1-c1noc(-c2ccc(-c3cscc3C)c(C(F)(F)F)c2)n1 [Compound I57, 3-(2-methoxyphenyl)-5-[4-(4-methyl-3-thienyl)-3-(trifluoromethyl)phenyl]-1,2,4-oxadiazole] | 2 | 1 | > 20000
2 | Cc1cc(-c2nc(-c3ccccc3OC(F)(F)F)no2)ccc1-c1ccccc1C(F)(F)F [Compound I23, 5-[2-methyl-2′-(trifluoromethyl)biphenyl-4-yl]-3-[2-(trifluoromethoxy)phenyl]-1,2,4-oxadiazole] | 16 | 10 | > 30000
3 | Cc1ccccc1-c1ccc(-c2nc(-c3ccccc3OC(F)(F)F)no2)cc1C(F)(F)F [Compound I55, 5-[2′-methyl-2-(trifluoromethyl)biphenyl-4-yl]-3-[2-(trifluoromethoxy)phenyl]-1,2,4-oxadiazole] | 8 | 2 | > 30000
4 | COc1ccccc1-c1noc(-c2ccc(-c3cscc3C)c(OC)c2)n1 [Compound I48, 5-[3-methoxy-4-(4-methyl-3-thienyl)phenyl]-3-(2-methoxyphenyl)-1,2,4-oxadiazole] | 4 | 5 | 2180
5 | COc1ccc(F)cc1-c1noc(-c2ccc(-c3ccccc3C)c(CO)c2)n1 [Compound I77, {4-[3-(5-fluoro-2-methoxyphenyl)-1,2,4-oxadiazol-5-yl]-2′-methylbiphenyl-2-yl}methanol] | 53 | 65 | 5610
6 | Cc1cc(-c2nc(-c3ccccc3OC(F)(F)F)no2)ccc1-c1cscc1C [Compound I44, 5-[3-methyl-4-(4-methyl-3-thienyl)phenyl]-3-[2-(trifluoromethoxy)phenyl]-1,2,4-oxadiazole] | 5 | 3 | > 20000
7 | Cc1ccccc1-c1ccc(-c2nc(-c3ccccc3OC(F)(F)F)no2)cc1C [Compound I21, 5-(2,2′-dimethylbiphenyl-4-yl)-3-[2-(trifluoromethoxy)phenyl]-1,2,4-oxadiazole] | 8 | 4 | > 30000
8 | COc1ccccc1-c1noc(-c2ccc(-c3cscc3C)c(C)c2)n1 [Compound I25, 3-(2-methoxyphenyl)-5-[3-methyl-4-(4-methyl-3-thienyl)phenyl]-1,2,4-oxadiazole] | 3 | 9 | 5490

More lines, now with the values ahead:

Row | Ki (S1P1 [1]) [nM] | EC50 (S1P1 [2]) [nM] | EC50 (S1P3) [nM] | Structure (SMILES)
9 | 4 | 1 | 74 | COc1ccc(F)cc1-c1noc(-c2ccc(N3CCCCC3C)c(C#N)c2)n1 (stereo not drawn) [Compound I71, 5-[3-(5-fluoro-2-methoxyphenyl)-1,2,4-oxadiazol-5-yl]-2-(2-methylpiperidin-1-yl)benzonitrile]
10 | 3 | 2 | 650 | COc1ccccc1-c1noc(-c2ccc(N3CCCCC3C)c(C(F)(F)F)c2)n1 (stereo not drawn) [Compound I35, 1-[4-[3-(2-methoxyphenyl)-1,2,4-oxadiazol-5-yl]-2-(trifluoromethyl)phenyl]-2-methylpiperidine]
11 | 3 | 1 | 125 | COc1ccc(F)cc1-c1noc(-c2ccc(N3CCCCC3C)c(C(F)(F)F)c2)n1 (stereo not drawn) [Compound I63, 1-[4-[3-(5-fluoro-2-methoxyphenyl)-1,2,4-oxadiazol-5-yl]-2-(trifluoromethyl)phenyl]-2-methylpiperidine]
12 | 1 | 2 | 617 | COc1ccc(F)cc1-c1noc(-c2ccc(N3CCCCC3)c(C(F)(F)F)c2)n1 [Compound I60, 1-[4-[3-(5-fluoro-2-methoxyphenyl)-1,2,4-oxadiazol-5-yl]-2-(trifluoromethyl)phenyl]piperidine]
13 | 1 | 2 | 1700 | COc1ccc(F)cc1-c1noc(-c2ccc(N3CCCCC3C)c([N+](=O)[O-])c2)n1 (stereo not drawn) [Compound I32, 1-{4-[3-(5-fluoro-2-methoxyphenyl)-1,2,4-oxadiazol-5-yl]-2-nitrophenyl}-2-methylpiperidine]
